Results from patent US10309966B2, “Personalized therapy of inflammation-associated cancer using methods of assessing the susceptibility of a subject to the treatment with EGFR inhibitors/antagonists” (Medizinische Universität Wien, priority 2014, dated 2019).

Tests used:
[1] = test system: AR release by cultured Kupffer cells; assay: AR (amphiregulin) release into supernatant of IL-1β stimulated Kupffer cells (ELISA); type: cell-based, mouse; details: 24 hours after IL-1β stimulation in presence of inhibitor; FIG. 10B
Protocol: (§1) Protocols for ELISA have been previously described (Natarajan, A. et al., 2007; Lichtenberger, B. M. et al., 2010; Sibilia, M. et al., 2000; Drobits, B. et al., 2012). ELISA for IL-6, IL17A, IL22, IL23 (eBioscience), amphiregulin (R&D Systems), CCL2, IL-1β and IL-1α (BD Biosciences-Pharmigen) were performed following the manufacturer's instructions. MTT assay (EZ4U, Biomedica) was performed to quantify the number of viable Kupffer cells in the wells. The cytokine value was normalized to the number of viable Kupffer cells.
Hepatocytes and Kupffer cells were isolated after liver perfusion according to previously published protocols (Smedsrod, B. et al., 1985) and either directly used for further analysis or cultured as follows. Hepatocytes were plated onto collagen pre-coated cell culture dishes and cultured in HepatoZyme-SFM (Gibco) supplemented with 2 mM glutamine and 1% penicillin-streptomycin (P/S). Hepatocytes were either treated with the indicated amounts of DEN for 24 hours or with 10 ng/ml TNFα (eBioscience) in the presence of cycloheximide (100 μg/ml, Sigma) for 12 hours to study the hepatoprotective role of EGFR. Kupffer cells were isolated and plated in RPMI 1640 with 10% FCS, 2 mM glutamine, 1% P/S for at least 24 hours followed by overnight starvation (in 0.5% FCS containing medium for cytokine induction; serum-free medium for signaling experiments). […]

[2] = test system: IL-6 secretion by isolated Kupffer cells; assay: IL-1β-induced IL-6 production/secretion by isolated Kupffer cells (ELISA, qRT-PCR); type: cell-based, mouse; details: for IL-1β-induced release of IL-6: EGFR-expressing Kupffer cells, 24 hours after IL-1β, inhibitor pre-incubation, FIG. 10C
Protocol: as §1, with “ELISA” for “Protocols for ELISA have been previously described (Natarajan, A. et al., 2007; Lichtenberger, B. M. et al., 2010; Sibilia, M. et al., 2000; Drobits, B. et al., 2012). ELISA”
(§2) Hepatocytes were plated onto collagen pre-coated cell culture dishes and cultured in HepatoZyme-SFM (Gibco) supplemented with 2 mM glutamine and 1% penicillin-streptomycin (P/S). Hepatocytes were either treated with the indicated amounts of DEN for 24 hours or with 10 ng/ml TNFα (eBioscience) in the presence of cycloheximide (100 μg/ml, Sigma) for 12 hours to study the hepatoprotective role of EGFR. […] Since the number of Kupffer cells which can be recovered from one mouse is very low, it was technically impossible to perform Western Blot analysis for all indicated signaling molecules on one single batch of Kupffer cells. Usually Kupffer cells from 2 livers of the same genotype were pooled together to obtain around 20-30 μg of protein lysate.

[3] = test system: IL-6 release by cultured Kupffer cells; assay: EGF-induced IL-6 release by cultured Kupffer cells (ELISA); type: cell-based, mouse
Protocol: as §1
Hepatocytes and Kupffer cells were isolated after liver perfusion according to previously published protocols (Smedsrod, B. et al., 1985) and either directly used for further analysis or cultured as follows. Hepatocytes were plated onto collagen pre-coated cell culture dishes and cultured in HepatoZyme-SFM (Gibco) supplemented with 2 mM glutamine and 1% penicillin-streptomycin (P/S). Hepatocytes were either treated with the indicated amounts of DEN for 24 hours or with 10 ng/ml TNFα (eBioscience) in the presence of cycloheximide (100 μg/ml, Sigma) for 12 hours to study the hepatoprotective role of EGFR. Kupffer cells were isolated and plated in RPMI 1640 with 10% FCS, 2 mM glutamine, 1% P/S for at least 24 hours followed by overnight starvation (in 0.5% FCS containing medium for cytokine induction; serum-free medium for signaling experiments). Kupffer cells were stimulated with IL-1β (10 ng/ml, eBioscience), EGF (10 ng/ml, Lonza), polylC (20 μg/ml, GE Healthcare), imiquimod (12 μg/ml, Invivogen) and LPS (10 ng/ml, Invivogen) for the time period indicated. […] Since the number of Kupffer cells which can be recovered from one mouse is very low, it was technically impossible to perform Western Blot analysis for all indicated signaling molecules on one single batch of Kupffer cells. Usually Kupffer cells from 2 livers of the same genotype were pooled together to obtain around 20-30 μg of protein lysate.

[4] = test system: ulcerative colitis patients; details: EGF enemas; cited from earlier work
human HCC cells = details: xenograft models with human HCC cells; W. Sieghart, unpublished results; cited from earlier work
[5] = test system: patients with advanced non-small-cell lung cancer; details: meta-analysis; cited from earlier work
[6] = test system: advanced stage HCC patients; details: cited from earlier work
EGFR = EGFR phosphorylation in isolated Kupffer cells (Western blot); type: cell-based, mouse; details: EGFR expressing Kupffer cells; IL-1β as stimulus; FIGS. 10E, 10F
Protocol: as §2

[7] = test system: DSS colitis in Adam17^ex/ex mice; details: exogenous supplementation; cited from earlier work

CC(C)C[C@H](CC(=O)NO)C(=O)N[C@@H](Cc1ccc2ccccc2c1)C(=O)N[C@@H](C)C(=O)NCCN [TAPI-1, reference compound]
AR release into the culture medium [1]: did not occur | IL-1β-induced release of IL-6 [2]: blocked

EGF: EGFR ligand epidermal growth factor (NSDSECPLSHDGYCLHDGVCMYIEALDKYACNCVVGYIGERCQYRDLKWWELR; UniProt P01133 971-1023, looked up)
restoration of IL-6 production in MyD88−/− Kupffer cells ([3]; EGF as stimulus, FIG. 10D): fully restore | induction of IL-6 release ([3]; EGFR expressing Kupffer cells, EGF as stimulus, FIGS. 10C, 10D): sufficient and equally as potent as IL-1β | disease remission [4]: induced disease remission

C#Cc1cccc(Nc2ncnc3cc(OCCOC)c(OCCOC)cc23)c1 [erlotinib]
reduction of HCC burden (human HCC cells): ineffective | synergistic effect of combination therapy with sorafenib (human HCC cells): did not show any synergistic effect | drug toxicity (diarrhea) [5]: increased drug toxicity in the form of diarrhea | effects in phase 2 trials (disease stabilization at 6 months) ([6]; HCC, phase 2): moderate effects | improvement in survival through addition of erlotinib ([6]; SEARCH trial, phase III, advanced stage HCC-patients): unable to show any improvement in survival

IL-1β: cytokine used to stimulate Kupffer cells
induction of EGFR phosphorylation (EGFR): able to induce | induction of IL-6 transcripts and IL-6 protein in the culture medium ([2]; Kupffer cells expressing EGFR, IL-1β as stimulus, FIGS. 8E, 8F): induced

C[S+]([O-])c1ccc(-c2nc(-c3ccncc3)c(-c3ccc(F)cc3)[nH]2)cc1 (centres unmarked) [SB203580, reference compound]
IL-1β-induced release of IL-6 [2]: inhibited | EGF-induced IL-6 production ([3]; EGFR-positive liver macrophages, 24 hours after EGF, inhibitor pre-incubation, FIG. 10D): inhibited

COc1cc2ncnc(Nc3ccc(F)c(Cl)c3)c2cc1OCCCN1CCOCC1 [gefitinib]
drug toxicity (diarrhea) [5]: increased drug toxicity in the form of diarrhea | clinical results in advanced stage HCC patients ([6]; advanced stage HCC): disappointing clinical results

TGFα: EGFR ligand transforming growth factor alpha, exogenous supplementation
rescue of colitis symptoms [7]: partial rescue
